Values quoted from earlier work in patent US20190151294A1, “TREATMENT OF ALCOHOLISM AND DEPRESSION AND/OR DYSPHORIC MOOD USING IBUDILAST” (MEDICINOVA, INC., priority 2016, published 2019).

Test system: P and HAD1 rats and mouse model of ethanol dependence
Settings: in these models of elevated alcohol intake; cited from earlier work

Structure (SMILES)	selective reduction of ethanol drinking
CC[C@@H](C(N)=O)N1CCCC1=O [levatiracetam]	do not selectively reduce ethanol drinking
OCCOCCN1CCN(C2=Nc3ccccc3Sc3ccccc32)CC1 [quetiapine]	do not selectively reduce ethanol drinking
